Experimental data as given in patent EP1779853A2, “9a-azalides as veterinary antimicrobial agents” (Merial Ltd., priority 1997, dated 1999).
Values after ≈ are worked out from the molar mass of the structure shown.

Assays:
Assay in all cases: MIC determination (culture tube dilution) against veterinary pathogens
Type in all cases: cell-based
H. somnus = conditions: one range summarising both compounds
Protocol: (§1) The antibacterial activity of representative 9a-azalides against a panel of veterinary pathogens was determined by the minimum inhibitory concentration (MIC) method well known in the art. This is done by preparing a series of culture tubes, each containing a medium with a different concnetration of the antimicrobial agent, and inoculating all the tubes with the same organism. The lowest concentration of agent that completely prevents the appearance of turbidity is noted, and this concentration is called the MIC.

P. multocida = conditions: Pasteurella multocida, one range summarising both compounds
Protocol: as §1

P. haemolytica = conditions: Mannheimia haemolytica, one range summarising both compounds
Protocol: as §1

Salmonella spp. = conditions: one range summarising both compounds
Protocol: as §1

E. coli = conditions: Escherichia coli, one range summarising both compounds
Protocol: as §1

A. pleuropneumoniae = conditions: Actinobacillus pleuropneumoniae, one range summarising both compounds
Protocol: as §1

Row | Structure (SMILES) | MIC (H. somnus) | MIC (P. multocida) | MIC (P. haemolytica) | MIC (Salmonella spp.) | MIC (E. coli) | MIC (A. pleuropneumoniae)
1 | CC[C@H]1OC(=O)[C@H](C)[C@@H](O[C@H]2C[C@@](C)(OC)[C@@H](O)[C@H](C)O2)[C@H](C)[C@@H](O[C@@H]2O[C@H](C)C[C@H](N(C)C)[C@H]2O)[C@](C)(O)C[C@@H](C)CN(C)[C@H](C)[C@@H](O)[C@]1(C)O [azithromycin, 9-deoxo-9a-aza-9a-methyl-9a-homoerythromycin A] | 0.062 to 0.25 µg/mL (≈ 0.0828 to 0.334 µM) | 0.125 to 2 µg/mL (≈ 0.167 to 2.67 µM) | 0.125 to 0.5 µg/mL (≈ 0.167 to 0.668 µM) | 1 to 16 µg/mL (≈ 1.34 to 21.4 µM) | 0.5 to 16 µg/mL (≈ 0.668 to 21.4 µM) | 0.062 to 0.5 µg/mL (≈ 0.0828 to 0.668 µM)
2 | CC[C@H]1OC(=O)[C@H](C)[C@@H](O[C@H]2C[C@@](C)(OC)[C@@H](N)[C@H](C)O2)[C@H](C)[C@@H](O[C@@H]2O[C@H](C)C[C@H](N(C)C)[C@H]2O)[C@](C)(O)C[C@@H](C)CN(C)[C@H](C)[C@@H](O)[C@]1(C)O [4"-deoxy-4"-aminoazithromycin] | 0.062 to 0.25 µg/mL (≈ 0.0829 to 0.334 µM) | 0.125 to 2 µg/mL (≈ 0.167 to 2.67 µM) | 0.125 to 0.5 µg/mL (≈ 0.167 to 0.668 µM) | 1 to 16 µg/mL (≈ 1.34 to 21.4 µM) | 0.5 to 16 µg/mL (≈ 0.668 to 21.4 µM) | 0.062 to 0.5 µg/mL (≈ 0.0829 to 0.668 µM)
